# Data published in patent US11622991B2, “Protocol for treatment of lupus nephritis” (Aurinia Pharmaceuticals Inc., priority 2017, dated 2023).
# System: lupus nephritis
# Experiment: Predictability of week 48 partial remission from early reduction in UPCR (Tables 4-8)
# Assay type: in vivo, human
# Protocol: In the study reported in Example 1, the predictability of outcomes based on markers at early time points were determined.
# This is important because it is undesirable to subject a patient to unnecessary treatment, even if the treatment is relatively safe.
# PR is defined as at least 50% reduction in proteinuria (i.e. UPCR).
# Sensitivity is defined as the probability that a subject showing PR at 48 weeks would have shown a favorable result with regard to the marker at the designated early time point. In the tables below, this is the ratio of the number of subjects with favorable marker results (early drop or normalization) to the total subjects with 48 week PR.
# Specificity is defined as the probability that a subject not showing PR at 48 weeks would have shown an unfavorable result with regard to the marker at the designated early time point. In the tables below, this is the ratio of the number of subjects with unfavorable marker results (no early drop or no normalization) to the total subjects with no 48 week PR.
# Positive predictive value is defined as the probability that a subject showing a favorable result with respect to the marker at an earlier time point would show PR at 48 weeks. In the tables below, this is the ratio of the number of subjects with favorable marker results who have 48 week PR to those with favorable marker results (early reduction or yes column).
# Negative predictive value is defined as the probability that a subject showing an unfavorable result with respect to the marker at an earlier time point would not show PR at 48 weeks. In the tables below, this is the ratio of the number of subjects with unfavorable marker results who have no PR at 48 weeks to the total subjects with unfavorable marker results (no early reduction or no column).
# [1] = 25% reduction in UPCR, Week 26, 23.7 mg BID
# [2] = 25% reduction in UPCR, Week 26, 39.5 mg BID
# [3] = 25% reduction in UPCR, Week 36, 23.7 mg BID
# [4] = 25% reduction in UPCR, Week 36, 39.5 mg BID
# [5] = 25% reduction in UPCR, Week 48, 23.7 mg BID
# [6] = 25% reduction in UPCR, Week 48, 39.5 mg BID
# [7] = early 30% reduction in UPCR, week 2, 39.5 mg BID
# [8] = early 30% reduction in UPCR, week 6, 23.7 mg BID
# [9] = early 30% reduction in UPCR, week 8, 23.7 mg BID
# [10] = early 30% reduction in UPCR, week 8, 39.5 mg BID
# [11] = early 30% reduction in UPCR, week 12, 39.5 mg BID
# [12] = early 30% reduction in UPCR, week 16, 23.7 mg BID
# [13] = early 30% reduction in UPCR, week 16, 39.5 mg BID
# [14] = early 30% reduction in UPCR, week 20, 23.7 mg BID
# [15] = early 30% reduction in UPCR, week 24, 23.7 mg BID
# [16] = early 30% reduction in UPCR, week 24, 39.5 mg BID
# [17] = early 30% reduction in UPCR, week 26, 23.7 mg BID
# [18] = early 30% reduction in UPCR, week 26, 39.5 mg BID
# [19] = early 30% reduction in UPCR, week 36, 23.7 mg BID
# [20] = early 30% reduction in UPCR, week 36, 39.5 mg BID
# [21] = early 30% reduction in UPCR, week 48, 23.7 mg BID
# [22] = early 30% reduction in UPCR, week 48, 39.5 mg BID
# [23] = early 35% reduction in UPCR, week 2, 39.5 mg BID
# [24] = early 35% reduction in UPCR, week 6, 23.7 mg BID
# [25] = early 35% reduction in UPCR, week 8, 23.7 mg BID
# [26] = early 35% reduction in UPCR, week 8, 39.5 mg BID
# [27] = early 35% reduction in UPCR, week 12, 23.7 mg BID
# [28] = early 35% reduction in UPCR, week 12, 39.5 mg BID
# [29] = early 35% reduction in UPCR, week 16, 23.7 mg BID
# [30] = early 35% reduction in UPCR, week 16, 39.5 mg BID
# [31] = early 35% reduction in UPCR, week 20, 23.7 mg BID
# [32] = early 35% reduction in UPCR, week 24, 23.7 mg BID
# [33] = early 35% reduction in UPCR, week 24, 39.5 mg BID
# [34] = early 35% reduction in UPCR, week 26, 23.7 mg BID
# [35] = early 35% reduction in UPCR, week 26, 39.5 mg BID
# [36] = early 35% reduction in UPCR, week 36, 23.7 mg BID
# [37] = early 35% reduction in UPCR, week 36, 39.5 mg BID
# [38] = early 35% reduction in UPCR, week 48, 23.7 mg BID
compound,measurement,setting,value
C=C/C=C/C[C@@H](C)[C@@H](O)[C@H]1C(=O)N[C@@H](CC)C(=O)N(C)CC(=O)N(C)[C@@H](CC(C)C)C(=O)N[C@@H](C(C)C)C(=O)N(C)[C@@H](CC(C)C)C(=O)N[C@@H](C)C(=O)N[C@H](C)C(=O)N(C)[C@@H](CC(C)C)C(=O)N(C)[C@@H](CC(C)C)C(=O)N(C)[C@@H](C(C)C)C(=O)N1C [voclosporin],No Week 48 Partial Remission Early Drop,[1],8
same,No Week 48 Partial Remission No Early Drop,[1],4
same,No Week 48 Partial Remission No Early Drop,[2],4
same,Week 48 Partial Remission No Early Drop,[2],1
same,Early Reduction No,[3],4
same,No Week 48 Partial Remission Early Drop,[3],10
same,No Week 48 Partial Remission No Early Drop,[3],3
same,Week 48 Partial Remission No Early Drop,[3],1
same,Early Reduction No,[4],8
same,Week 48 Partial Remission No Early Drop,[4],2
same,Early Reduction No,[5],2
same,No Week 48 Partial Remission Early Drop,[5],9
same,No Week 48 Partial Remission No Early Drop,[5],2
same,Early Reduction No,[6],9
same,No Week 48 Partial Remission Early Drop,[6],7
same,No Week 48 Partial Remission No Early Drop,[6],9
same,No Week 48 Partial Remission Early Drop,[7],11
same,Week 48 Partial Remission Early Drop,[7],31
same,Week 48 Partial Remission No Early Drop,[7],29
same,No Week 48 Partial Remission Early Drop,"early 30% reduction in UPCR, week 4, 23.7 mg BID",11
same,Week 48 Partial Remission No Early Drop,"early 30% reduction in UPCR, week 4, 39.5 mg BID",16
same,No Week 48 Partial Remission Early Drop,[8],10
same,No Week 48 Partial Remission No Early Drop,[8],8
same,Week 48 Partial Remission No Early Drop,[8],10
same,Week 48 Partial Remission No Early Drop,"early 30% reduction in UPCR, week 6, 39.5 mg BID",16
same,No Week 48 Partial Remission Early Drop,[9],10
same,No Week 48 Partial Remission No Early Drop,[9],9
same,Week 48 Partial Remission No Early Drop,[9],7
same,Early Reduction No,[10],11
same,No Week 48 Partial Remission No Early Drop,[10],4
same,Week 48 Partial Remission No Early Drop,[10],7
same,No Week 48 Partial Remission No Early Drop,"early 30% reduction in UPCR, week 12, 23.7 mg BID",7
same,Early Reduction No,[11],11
same,No Week 48 Partial Remission No Early Drop,[11],4
same,Week 48 Partial Remission No Early Drop,[11],7
same,Early Reduction No,[12],10
same,No Week 48 Partial Remission Early Drop,[12],11
same,No Week 48 Partial Remission No Early Drop,[12],7
same,Week 48 Partial Remission No Early Drop,[12],3
same,No Week 48 Partial Remission No Early Drop,[13],7
same,Week 48 Partial Remission No Early Drop,[13],8
same,Early Reduction No,[14],10
same,No Week 48 Partial Remission Early Drop,[14],9
same,No Week 48 Partial Remission No Early Drop,[14],7
same,Week 48 Partial Remission No Early Drop,[14],3
same,Early Reduction No,"early 30% reduction in UPCR, week 20, 39.5 mg BID",10
same,Early Reduction No,[15],4
same,No Week 48 Partial Remission Early Drop,[15],11
same,No Week 48 Partial Remission No Early Drop,[15],3
same,Week 48 Partial Remission No Early Drop,[15],1
same,No Week 48 Partial Remission No Early Drop,[16],7
same,Week 48 Partial Remission No Early Drop,[16],9
same,No Week 48 Partial Remission Early Drop,[17],7
same,Week 48 Partial Remission No Early Drop,[17],1
same,Early Reduction No,[18],8
same,No Week 48 Partial Remission Early Drop,[18],11
same,Week 48 Partial Remission No Early Drop,[18],3
same,Early Reduction No,[19],4
same,No Week 48 Partial Remission Early Drop,[19],10
same,No Week 48 Partial Remission No Early Drop,[19],3
same,Week 48 Partial Remission No Early Drop,[19],1
same,Early Reduction No,[20],9
same,No Week 48 Partial Remission Early Drop,[20],11
same,No Week 48 Partial Remission No Early Drop,[20],7
same,Week 48 Partial Remission No Early Drop,[20],2
same,Early Reduction No,[21],3
same,No Week 48 Partial Remission Early Drop,[21],8
same,No Week 48 Partial Remission No Early Drop,[21],3
same,Early Reduction No,[22],11
same,No Week 48 Partial Remission No Early Drop,[22],11
same,Early Reduction Yes,[23],39
same,No Week 48 Partial Remission Early Drop,[23],11
same,Week 48 Partial Remission No Early Drop,[23],32
same,No Week 48 Partial Remission Early Drop,"early 35% reduction in UPCR, week 4, 23.7 mg BID",11
same,No Week 48 Partial Remission No Early Drop,"early 35% reduction in UPCR, week 4, 39.5 mg BID",8
same,No Week 48 Partial Remission Early Drop,[24],9
same,No Week 48 Partial Remission No Early Drop,[24],9
same,Week 48 Partial Remission No Early Drop,"early 35% reduction in UPCR, week 6, 39.5 mg BID",16
same,No Week 48 Partial Remission Early Drop,[25],9
same,No Week 48 Partial Remission No Early Drop,[25],10
same,Week 48 Partial Remission No Early Drop,[25],8
same,No Week 48 Partial Remission No Early Drop,[26],4
same,Week 48 Partial Remission No Early Drop,[26],8
same,No Week 48 Partial Remission Early Drop,[27],10
same,No Week 48 Partial Remission No Early Drop,[27],9
same,Week 48 Partial Remission No Early Drop,[27],7
same,No Week 48 Partial Remission No Early Drop,[28],4
same,Week 48 Partial Remission No Early Drop,[28],10
same,Early Reduction No,[29],11
same,No Week 48 Partial Remission Early Drop,[29],11
same,No Week 48 Partial Remission No Early Drop,[29],7
same,Week 48 Partial Remission No Early Drop,[29],4
same,No Week 48 Partial Remission No Early Drop,[30],7
same,Week 48 Partial Remission No Early Drop,[30],8
same,Early Reduction No,[31],11
same,No Week 48 Partial Remission Early Drop,[31],8
same,No Week 48 Partial Remission No Early Drop,[31],8
same,Week 48 Partial Remission No Early Drop,[31],3
same,Early Reduction No,"early 35% reduction in UPCR, week 20, 39.5 mg BID",11
same,Early Reduction No,[32],7
same,No Week 48 Partial Remission Early Drop,[32],8
same,Week 48 Partial Remission No Early Drop,[32],1
same,No Week 48 Partial Remission No Early Drop,[33],7
same,Week 48 Partial Remission No Early Drop,[33],9
same,Early Reduction No,[34],8
same,No Week 48 Partial Remission Early Drop,[34],7
same,Week 48 Partial Remission No Early Drop,[34],3
same,Early Reduction No,[35],11
same,No Week 48 Partial Remission Early Drop,[35],11
same,No Week 48 Partial Remission Early Drop,[36],9
same,No Week 48 Partial Remission No Early Drop,[36],4
same,Week 48 Partial Remission No Early Drop,[36],1
same,Early Reduction No,[37],9
same,No Week 48 Partial Remission Early Drop,[37],11
same,No Week 48 Partial Remission No Early Drop,[37],7
same,Week 48 Partial Remission No Early Drop,[37],2
same,Early Reduction No,[38],4
same,No Week 48 Partial Remission Early Drop,[38],7
same,No Week 48 Partial Remission No Early Drop,[38],4
same,No Week 48 Partial Remission Early Drop,"early 35% reduction in UPCR, week 48, 39.5 mg BID",4
